The source made the active and inactive calls. The rule behind the calls is not given here.
How the values were obtained:
[1] = target: T1, Epidermal growth factor receptor (Homo sapiens, UniProt P00533)
Description: Inhibition of phosphorylation of a polyglutamic acid/tyrosine random copolymer by EGFR enzyme prepared from human A431 carcinoma cell vesicles by immunoaffinity chromatography

[2] = target: T1, Epidermal growth factor receptor; remark: listed apart in the source
Description: Inhibition of EGF-stimulated autophosphorylation of EGFR enzyme in A431 cells detected by immunoblotting

[3] = tested on: A-431; assay: In vivo activity against A431 xenografts in mice, ratio of treated/control tumor mass at 18 mg/kg peroral dose for 10-24 days; conditions: route oral
[4] = tested on: Caco-2; assay: Absorptive transport in Caco-2 cells in comparison to metoprolol.; type: functional, cell-based; conditions: Homo sapiens
[5] = tested on: Caco-2; assay: permeability in Caco-2 cells; no; type: functional, cell-based; conditions: Homo sapiens
[6] = tested on: Caco-2; assay: Efflux in Caco-2 cells; no; type: functional, cell-based; conditions: Homo sapiens
[7] = tested on: A-431; assay: In vivo activity against A431 xenografts in mice, ratio of treated/control tumor mass at 5 mg/kg peroral dose for 10-24 days; type: functional; conditions: route oral
[8] = target: Receptor tyrosine-protein kinase erbB-2 (Homo sapiens, UniProt P04626)
Sequence of Receptor tyrosine-protein kinase erbB-2 (P04626 whole entry): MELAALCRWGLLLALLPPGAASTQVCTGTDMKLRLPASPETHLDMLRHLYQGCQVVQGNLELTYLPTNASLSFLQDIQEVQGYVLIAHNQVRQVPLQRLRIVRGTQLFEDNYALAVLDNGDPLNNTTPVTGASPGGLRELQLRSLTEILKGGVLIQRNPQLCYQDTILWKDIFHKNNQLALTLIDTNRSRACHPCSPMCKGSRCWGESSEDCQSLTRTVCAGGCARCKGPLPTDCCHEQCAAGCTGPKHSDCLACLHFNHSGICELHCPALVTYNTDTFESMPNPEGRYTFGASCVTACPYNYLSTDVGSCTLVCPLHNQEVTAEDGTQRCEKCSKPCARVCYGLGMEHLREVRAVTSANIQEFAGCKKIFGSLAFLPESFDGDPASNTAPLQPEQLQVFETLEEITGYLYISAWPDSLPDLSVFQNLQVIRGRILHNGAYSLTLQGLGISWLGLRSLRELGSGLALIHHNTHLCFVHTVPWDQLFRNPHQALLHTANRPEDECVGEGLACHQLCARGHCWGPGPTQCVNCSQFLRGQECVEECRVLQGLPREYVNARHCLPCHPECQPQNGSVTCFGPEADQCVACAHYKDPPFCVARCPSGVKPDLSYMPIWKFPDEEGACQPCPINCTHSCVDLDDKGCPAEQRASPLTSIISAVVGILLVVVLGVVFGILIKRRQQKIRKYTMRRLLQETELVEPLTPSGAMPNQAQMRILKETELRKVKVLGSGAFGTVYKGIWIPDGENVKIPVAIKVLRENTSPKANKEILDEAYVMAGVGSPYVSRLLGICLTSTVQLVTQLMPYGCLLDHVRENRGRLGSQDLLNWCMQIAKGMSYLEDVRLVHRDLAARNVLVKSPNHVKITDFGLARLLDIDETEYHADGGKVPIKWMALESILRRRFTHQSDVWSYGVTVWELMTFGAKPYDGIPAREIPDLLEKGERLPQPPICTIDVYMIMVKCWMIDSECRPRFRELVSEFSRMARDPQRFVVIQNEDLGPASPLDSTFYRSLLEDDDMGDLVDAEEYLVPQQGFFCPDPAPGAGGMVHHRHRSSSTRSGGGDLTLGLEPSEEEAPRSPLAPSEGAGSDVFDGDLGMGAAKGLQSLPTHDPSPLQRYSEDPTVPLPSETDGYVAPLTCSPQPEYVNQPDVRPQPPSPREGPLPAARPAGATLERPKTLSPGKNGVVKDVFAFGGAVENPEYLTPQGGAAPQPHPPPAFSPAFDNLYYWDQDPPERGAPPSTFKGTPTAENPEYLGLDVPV
Description: Inhibition of autophosphorylation of ERBB2 receptor kinase in MDA-MB 453 cells

[9] = tested on: Caco-2; assay: Efflux in Caco-2 cells; yes; type: functional, cell-based; conditions: Homo sapiens
[10] = tested on: Caco-2; assay: permeability in Caco-2 cells; yes; type: functional, cell-based; conditions: Homo sapiens
[11] = tested on: Caco-2; assay: Absorptive transport in Caco-2 cells in comparison to metoprolol; type: functional, cell-based; conditions: Homo sapiens
[12] = tested on: A-431; assay: In vivo activity against A431 xenografts in mice, ratio of treated/control A431 cell tumor mass at 20 mg/kg peroral dose for 10-24 days; type: functional; conditions: route oral
[13] = tested on: A-431; assay: In vivo activity against A431 xenografts in mice, difference in days for treated(T) and control(C) tumors to reach 750 mg at 20 mg/kg peroral dose for 10-24 days; type: functional; conditions: route oral
[14] = tested on: Caco-2; assay: Secretory Transport in Caco-2 cells in comparison to metoprolol; type: functional, cell-based; parameters: unit not given here; conditions: Homo sapiens
[15] = tested on: A-431; assay: In vivo activity against A431 xenografts in mice, ratio of treated/control tumor mass at 20 mg/kg peroral dose for 15-19 days; conditions: route oral
[16] = tested on: Mus musculus; assay: In vivo activity against xenografts in mice, ratio of treated/control tumor mass at 10 mg/kg peroral dose for 10-24 days; type: functional; conditions: route oral
[17] = tested on: A-431; assay: In vivo activity against A431 xenografts in mice after 60 mg/kg peroral dose; type: functional; conditions: route oral
[18] = tested on: A-431; assay: In vivo activity against A431 xenografts in mice, difference in days for treated(T) and control(C) tumors to reach 750 mg at 10 mg/kg intraperitoneal dose for 13-26 days
[19] = tested on: Mus musculus; assay: In vivo activity against xenografts in mice, ratio of treated/control tumor mass at 10 mg/kg intraperitoneal dose
[20] = tested on: A-431; assay: In vivo activity against A431 xenografts in mice, difference in days for treated(T) and control(C) tumors to reach 750 mg at 60 mg/kg peroral dose for 10-24 days; type: functional; conditions: route oral

T1 sequence (P00533 whole entry): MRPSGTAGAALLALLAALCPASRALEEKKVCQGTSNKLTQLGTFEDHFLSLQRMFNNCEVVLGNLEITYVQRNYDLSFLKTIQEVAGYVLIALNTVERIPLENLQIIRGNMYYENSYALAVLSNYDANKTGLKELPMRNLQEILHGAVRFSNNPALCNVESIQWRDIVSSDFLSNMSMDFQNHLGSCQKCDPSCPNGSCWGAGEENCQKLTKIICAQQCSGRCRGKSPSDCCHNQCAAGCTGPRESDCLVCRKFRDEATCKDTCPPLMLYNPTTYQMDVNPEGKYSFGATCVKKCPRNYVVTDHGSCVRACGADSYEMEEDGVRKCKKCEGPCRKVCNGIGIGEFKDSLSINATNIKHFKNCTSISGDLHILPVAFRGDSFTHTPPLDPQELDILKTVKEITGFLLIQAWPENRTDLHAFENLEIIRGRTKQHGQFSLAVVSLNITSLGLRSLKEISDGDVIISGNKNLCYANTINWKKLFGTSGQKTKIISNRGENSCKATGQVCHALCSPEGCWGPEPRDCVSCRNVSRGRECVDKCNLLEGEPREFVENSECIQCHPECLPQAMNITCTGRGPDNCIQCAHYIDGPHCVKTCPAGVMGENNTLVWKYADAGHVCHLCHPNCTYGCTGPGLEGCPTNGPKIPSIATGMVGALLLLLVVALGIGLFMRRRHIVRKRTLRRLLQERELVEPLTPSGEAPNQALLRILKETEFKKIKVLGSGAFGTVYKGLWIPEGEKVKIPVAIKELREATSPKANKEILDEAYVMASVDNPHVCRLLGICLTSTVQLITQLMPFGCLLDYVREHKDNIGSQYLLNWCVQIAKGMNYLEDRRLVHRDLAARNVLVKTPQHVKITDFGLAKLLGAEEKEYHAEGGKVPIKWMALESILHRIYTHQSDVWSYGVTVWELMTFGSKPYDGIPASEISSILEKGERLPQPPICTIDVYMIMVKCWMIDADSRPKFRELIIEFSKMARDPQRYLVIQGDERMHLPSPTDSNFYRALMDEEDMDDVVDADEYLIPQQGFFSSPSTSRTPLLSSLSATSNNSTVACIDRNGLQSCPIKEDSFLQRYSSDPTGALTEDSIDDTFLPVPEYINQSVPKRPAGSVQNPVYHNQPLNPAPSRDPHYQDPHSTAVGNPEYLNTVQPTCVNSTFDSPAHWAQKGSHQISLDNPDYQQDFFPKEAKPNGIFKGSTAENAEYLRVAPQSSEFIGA

In the case of C=CC(=O)Nc1ccc2ncnc(Nc3ccc(CN(C)C)c(Br)c3)c2c1, the IC50 [1] is reported as 45 nM and the IC50 [2] is reported as 416 nM.
For C=CC(=O)Nc1cc2c(Nc3ccc(F)c(Cl)c3)ncnc2cc1OCCCN1CCOCC1 [CANERTINIB], the Last therapy day [3] was 0%, the Permeability [4] was 49.3 ·10e6 and the Cell permeation [5] was “Impermeable”. The Efflux [6] was “Impermeable” and the Last therapy day [7] was 4%.
With C=CC(=O)Nc1ccc2ncnc(Nc3ccc(OCCN(C)C)c(Br)c3)c2c1 the IC50 [1] was 27 nM and the IC50 [2] was 7690 nM.
Work on C=CC(=O)Nc1nc2c(Nc3ccc(F)c(Cl)c3)ncnc2cc1OCCCN1CCN(C)CC1 yielded an IC50 [1] of 6.6 nM, an IC50 [2] of 264 nM and an IC50 [8] of 182 nM.
Compound C=CC(=O)Nc1nc2c(Nc3ccc(F)c(Cl)c3)ncnc2cc1OCCOC has an IC50 [1] of 0.97 nM and an IC50 [2] of 377 nM.
Compound C=CC(=O)Nc1cc2c(Nc3cccc(Br)c3)ncnc2cc1OCCCN1CCN(C)CC1 has an IC50 [1] of 1.7 nM and an IC50 [2] of 3 nM.
CC[C@]1(O)C[C@@H]2CN(CCc3c([nH]c4ccccc34)[C@@](C(=O)OC)(c3cc4c(cc3OC)N(C)[C@H]3[C@@](O)(C(=O)OC)[C@H](OC(C)=O)[C@]5(CC)C=CCN6CC[C@]43[C@@H]65)C2)C1 was tested, and the Permeability [9] was “Active”, the Permeability [10] was “Active” and the Permeability [11] was 1.54 ·10e6.
For C=CC(=O)Nc1nc2c(Nc3ccc(F)c(Cl)c3)ncnc2cc1OC, the IC50 [1] was 0.95 nM, the IC50 [2] was 291 nM and the IC50 [8] was 125 nM.
C=CC(=O)Nc1cc2c(Nc3ccc(F)c(Br)c3)ncnc2cc1OCCCN1CCOCC1 gave an IC50 [1] of 1.8 nM, an IC50 [2] of 4.7 nM and an IC50 [8] of 8.2 nM.
C=CC(=O)Nc1nc2c(Nc3ccc(F)c(Cl)c3)ncnc2cc1CCCCN1CCOCC1 gave an IC50 [1] of 2.7 nM, an IC50 [2] of 5100 nM and an IC50 [8] greater than 5000 nM.
Compound C=CC(=O)Nc1cc2c(Nc3cccc(Br)c3)ncnc2cc1SCCCN(CC)CC has an IC50 [1] of 0.78 nM and an IC50 [2] of 196 nM.
Compound C=CC(=O)Nc1cc2c(Nc3cccc(C)c3)ncnc2cc1OCCCN1CCN(C)CC1 has an IC50 [1] of 2 nM and an IC50 [2] of 18 nM.
C=CC(=O)Nc1ccc2ncnc(Nc3cccc(C)c3)c2c1 was tested, and the IC50 [8] was 22 nM.
Work on C=CC(=O)Nc1nc2c(Nc3ccc(F)c(Cl)c3)ncnc2cc1OCCCN1CCOCC1 yielded an IC50 [1] of 1.5 nM, a T/C [12] of 69% and a T-C [13] of 9.3 days. For the same compound, the IC50 [2] was 434 nM, the Permeability limited [5] was “Impermeable” and the Efflux [6] was “Impermeable”. For the same compound, the Permeability [14] was 81.2, the Permeability [11] was 59.6 ·10e6 and the Weight change [15] was -0.5 g. The IC50 [8] was 189 nM.
Compound C=CC(=O)Nc1cc2c(Nc3cccc(Br)c3)ncnc2cc1OCCCN1CCOCC1 has a T/C [16] of 0%, a Weight change [17] of -1.6 g and an IC50 [8] of 6.4 nM. For the same compound, the T-C [18] was 21.5 days, the T/C [19] was 18% and the T-C [20] was 29.8 days.
C=CC(=O)Nc1cc2c(Nc3cccc(Br)c3)ncnc2cc1OCCCCN(C)C was tested, and the IC50 [1] was 3.9 nM and the IC50 [2] was 7.9 nM.
Work on C=CC(=O)Nc1nc2c(Nc3ccc(F)c(Cl)c3)ncnc2cc1/C=C/CCN1CCOCC1 yielded an IC50 [1] of 0.16 nM, an IC50 [2] of 119 nM and an IC50 [8] of 12 nM.
With COCCc1ccc(OCC(O)CNC(C)C)cc1 (stereo unspecified) the Permeability [5] was “Impermeable”, the Permeability [6] was “Impermeable” and the Permeability [11] was 21.4 ·10e6.
Work on C=CC(=O)Nc1cc2c(Nc3ccc(F)c(Cl)c3)ncnc2cc1OCCOCCCCO yielded an IC50 [1] of 1.7 nM.
Work on C=CC(=O)N(C)c1nc2c(Nc3ccc(F)c(Cl)c3)ncnc2cc1OCCCN1CCOCC1 yielded an IC50 [1] of 20 nM, an IC50 [2] of 88 nM and an IC50 [8] greater than 200 nM.

Source: ChEMBL document CHEMBL1133162, “Tyrosine kinase inhibitors. 17. Irreversible inhibitors of the epidermal growth factor receptor: 4-(phenylamino)quinazoline- and 4-(phenylamino)pyrido[3,2-d]pyrimidine-6-acrylamides bearing additional solubilizing functions” (J Med Chem, 2000)
